Results from ChEMBL document CHEMBL3351520, “Discovery of lesser known flavones as inhibitors of NF-κB signaling in MDA-MB-231 breast cancer cells--A SAR study” (Bioorg Med Chem Lett, 2014).
Calls of active or inactive are those of the source. No cut-off for these calls is given here.

Experiments:
[1] = target: T1, Nuclear factor NF-kappa-B complex (Homo sapiens) (UniProt Q00653+P19838+Q04206); assay: Effect on NF-kappaB signaling in human MDA-MB-231 cells assessed as increase in MMP9 mRNA expression at 25 uM by quantitative RT-PCR method; assay type: cell-based
[2] = target: T1, Nuclear factor NF-kappa-B complex (Homo sapiens); assay: Effect on NF-kappaB signaling in human MDA-MB-231 cells assessed as increase in COX2 mRNA expression at 25 uM by quantitative RT-PCR method; assay type: cell-based
[3] = target: T1, Nuclear factor NF-kappa-B complex (Homo sapiens); assay: Inhibition of basal NF-kappaB signaling in human MDA-MB-231 cells assessed as reduction in COX2 mRNA expression at 25 uM by quantitative RT-PCR method relative to untreated control; assay type: cell-based
[4] = target: T1, Nuclear factor NF-kappa-B complex (Homo sapiens); assay: Inhibition of NF-kappaB signaling in human MDA-MB-231 cells assessed as reduction in PMA-stimulated COX2 mRNA expression at 25 uM pre-incubated before PMA stimulation by quantitative RT-PCR method relative to untreated control; assay type: cell-based
[5] = target: T1, Nuclear factor NF-kappa-B complex (Homo sapiens); assay: Inhibition of NF-kappaB signaling in human MDA-MB-231 cells assessed as reduction in PMA-stimulated MMP9 mRNA expression at 25 uM pre-incubated before PMA stimulation by quantitative RT-PCR method relative to untreated control; assay type: cell-based
[6] = target: T1, Nuclear factor NF-kappa-B complex (Homo sapiens); assay: Inhibition of basal NF-kappaB signaling in human MDA-MB-231 cells assessed as reduction in MMP9 mRNA expression at 25 uM by quantitative RT-PCR method relative to untreated control; assay type: cell-based
[7] = system: MDA-MB-231; assay: Induction of cell cycle arrest in PMA-stimulated human MDA-MB-231 cells assessed as accumulation at S phase at 25 uM after 48 hrs by propidium iodide staining based flow cytometry (reference value: 29%); assay type: functional
[8] = system: MDA-MB-231; assay: Cytotoxicity against PMA-stimulated human MDA-MB-231 cells assessed as induction of cell death up to 25 uM after 48 hrs by MTT assay; assay type: functional
[9] = system: MDA-MB-231; assay: Induction of cell cycle arrest in un-stimulated human MDA-MB-231 cells assessed as accumulation at G2/M phase at 25 uM after 48 hrs by propidium iodide staining based flow cytometry; assay type: functional
[10] = system: MDA-MB-231; assay: Induction apoptosis in PMA-stimulated human MDA-MB-231 cells assessed as mitochondrial disruption up to 50 uM uM after 48 hrs by JC1 staining based fluorescence assay; assay type: functional, cell-based
[11] = target: T1, Nuclear factor NF-kappa-B complex (Homo sapiens); assay: Inhibition of basal NF-kappaB signaling in human MDA-MB-231 cells assessed as reduction in MMP9 mRNA expression at 50 uM by quantitative RT-PCR method relative to untreated control; assay type: cell-based
[12] = system: MDA-MB-231; assay: Inhibition of cell invasion of PMA-stimulated human MDA-MB-231 cells; assay type: functional, cell-based
[13] = system: MDA-MB-231; assay: Inhibition of cell migration of PMA-stimulated human MDA-MB-231 cells; assay type: functional, cell-based
[14] = system: MDA-MB-231; assay: Induction of cell cycle arrest in PMA-stimulated human MDA-MB-231 cells assessed as accumulation at G1 phase at 25 uM after 48 hrs by propidium iodide staining based flow cytometry (reference value: 52%); assay type: functional
[15] = target: T1, Nuclear factor NF-kappa-B complex (Homo sapiens); assay: Inhibition of basal NF-kappaB signaling in human MDA-MB-231 cells assessed as reduction in MMP9 mRNA expression at 12.5 uM by quantitative RT-PCR method relative to untreated control; assay type: cell-based
[16] = system: MDA-MB-231; assay: Cytotoxicity against non-stimulated human MDA-MB-231 cells assessed as induction of cell death up to 25 uM after 48 hrs by MTT assay; assay type: functional
[17] = target: T1, Nuclear factor NF-kappa-B complex (Homo sapiens); assay: Inhibition of NF-kappaB signaling in human MDA-MB-231 cells assessed as reduction in PMA-stimulated MMP9 mRNA expression at 50 uM pre-incubated before PMA stimulation by quantitative RT-PCR method relative to untreated control; assay type: cell-based
[18] = system: MDA-MB-231; assay: Induction of cell cycle arrest in PMA-stimulated human MDA-MB-231 cells assessed as accumulation at G2/M phase at 25 uM after 48 hrs by propidium iodide staining based flow cytometry (reference value: 19%); assay type: functional
[19] = target: T1, Nuclear factor NF-kappa-B complex (Homo sapiens); assay: Inhibition of basal NF-kappaB signaling in human MDA-MB-231 cells assessed as reduction in MMP9 mRNA expression at 12.5 uM by quantitative RT-PCR method; assay type: cell-based
[20] = target: T1, Nuclear factor NF-kappa-B complex (Homo sapiens); assay: Inhibition of basal NF-kappaB signaling in human MDA-MB-231 cells assessed as reduction in MMP9 mRNA expression at 6.25 uM by quantitative RT-PCR method relative to untreated control; assay type: cell-based
[21] = system: MDA-MB-231; assay: Cytotoxicity against PMA-stimulated human MDA-MB-231 cells assessed as induction of cell death at 50 uM after 48 hrs by MTT assay; assay type: functional
[22] = system: MDA-MB-231; assay: Induction of cell cycle arrest in PMA-stimulated human MDA-MB-231 cells assessed as accumulation at G2/M phase at 25 uM after 48 hrs by propidium iodide staining based flow cytometry; assay type: functional
[23] = target: T1, Nuclear factor NF-kappa-B complex (Homo sapiens); assay: Inhibition of NF-kappaB signaling in human MDA-MB-231 cells assessed as reduction in PMA-stimulated MMP9 protein expression at 6.25 to 50 uM pre-incubated before PMA stimulation by SDS-PAGE gelatin zymography; assay type: cell-based
[24] = Toxicity against human MDA-MB-231 cells after 48 hrs by MTT assay; assay type: cell-based; settings: read-out: MNCC
[25] = target: T1, Nuclear factor NF-kappa-B complex (Homo sapiens); assay: Inhibition of NF-kappaB signaling in human MDA-MB-231 cells assessed as reduction in PMA-stimulated MMP9 mRNA expression at 12.5 uM pre-incubated before PMA stimulation by quantitative RT-PCR method relative to untreated control; assay type: cell-based
[26] = target: T1, Nuclear factor NF-kappa-B complex (Homo sapiens); assay: Inhibition of basal NF-kappaB signaling in human MDA-MB-231 cells assessed as reduction in MMP9 mRNA expression at 3.125 uM by quantitative RT-PCR method relative to untreated control; assay type: cell-based
[27] = system: MDA-MB-231; assay: Cytotoxicity against non-stimulated human MDA-MB-231 cells assessed as induction of cell death at 50 uM after 48 hrs by MTT assay; assay type: functional
[28] = system: MDA-MB-231; assay: Induction apoptosis in PMA-stimulated human MDA-MB-231 cells assessed as mitochondrial disruption 3.125 to 25 uM uM after 48 hrs by JC1 staining based fluorescence assay; assay type: functional, cell-based
[29] = target: T1, Nuclear factor NF-kappa-B complex (Homo sapiens); assay: Inhibition of NF-kappaB signaling in human MDA-MB-231 cells assessed as reduction in PMA-stimulated MMP9 mRNA expression at 5 uM pre-incubated for 8 hrs before PMA stimulation for 4 hrs by quantitative RT-PCR method; assay type: cell-based
[30] = target: T1, Nuclear factor NF-kappa-B complex (Homo sapiens); assay: Inhibition of NF-kappaB signaling in human MDA-MB-231 cells assessed as reduction in PMA-stimulated COX2 mRNA expression at 5 uM pre-incubated for 8 hrs before PMA stimulation for 4 hrs by quantitative RT-PCR method; assay type: cell-based
[31] = target: T1, Nuclear factor NF-kappa-B complex (Homo sapiens); assay: Inhibition of doxorubicin-stimulated NF-kappaB signaling (unknown origin) expressed in MDA-MB-231 cells at 5 uM incubated for 16 hrs by luciferase reporter gene assay; assay type: cell-based
[32] = target: T1, Nuclear factor NF-kappa-B complex (Homo sapiens); assay: Inhibition of non-stimulated NF-kappaB signaling (unknown origin) expressed in MDA-MB-231 cells at 5 uM incubated for 16 hrs by luciferase reporter gene assay; assay type: cell-based
[33] = system: MDA-MB-231; assay: Induction apoptosis in PMA-stimulated human MDA-MB-231 cells assessed as mitochondrial disruption at 10 uM after 48 hrs by JC1 staining based fluorescence assay; assay type: functional, cell-based

T1 sequence (P19838 whole entry, looked up): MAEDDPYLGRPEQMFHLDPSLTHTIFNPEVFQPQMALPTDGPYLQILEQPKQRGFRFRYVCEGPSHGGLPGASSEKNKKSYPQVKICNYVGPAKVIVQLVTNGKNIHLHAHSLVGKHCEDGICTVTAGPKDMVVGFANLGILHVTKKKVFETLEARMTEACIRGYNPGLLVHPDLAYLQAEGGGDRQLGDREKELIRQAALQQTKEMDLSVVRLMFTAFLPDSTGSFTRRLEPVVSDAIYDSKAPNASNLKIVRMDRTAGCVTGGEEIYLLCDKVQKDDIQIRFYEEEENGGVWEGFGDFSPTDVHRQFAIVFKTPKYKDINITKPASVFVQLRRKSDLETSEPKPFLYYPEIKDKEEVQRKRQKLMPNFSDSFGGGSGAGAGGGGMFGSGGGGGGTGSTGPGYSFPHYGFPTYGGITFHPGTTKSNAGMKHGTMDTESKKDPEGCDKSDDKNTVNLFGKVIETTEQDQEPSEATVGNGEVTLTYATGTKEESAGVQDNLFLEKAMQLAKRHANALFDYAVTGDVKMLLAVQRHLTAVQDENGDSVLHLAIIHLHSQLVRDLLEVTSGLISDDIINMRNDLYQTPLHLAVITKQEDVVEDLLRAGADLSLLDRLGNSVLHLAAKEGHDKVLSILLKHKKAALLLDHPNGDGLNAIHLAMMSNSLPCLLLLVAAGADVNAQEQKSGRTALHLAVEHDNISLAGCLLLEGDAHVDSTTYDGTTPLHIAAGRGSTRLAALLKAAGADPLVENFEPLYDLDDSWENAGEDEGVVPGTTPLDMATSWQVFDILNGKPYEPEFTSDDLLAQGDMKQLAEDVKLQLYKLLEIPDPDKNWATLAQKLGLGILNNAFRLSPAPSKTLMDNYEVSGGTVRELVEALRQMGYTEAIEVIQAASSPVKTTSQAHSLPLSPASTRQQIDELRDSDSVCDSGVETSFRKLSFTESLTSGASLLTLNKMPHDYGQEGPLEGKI
T1 sequence (Q00653 whole entry, looked up): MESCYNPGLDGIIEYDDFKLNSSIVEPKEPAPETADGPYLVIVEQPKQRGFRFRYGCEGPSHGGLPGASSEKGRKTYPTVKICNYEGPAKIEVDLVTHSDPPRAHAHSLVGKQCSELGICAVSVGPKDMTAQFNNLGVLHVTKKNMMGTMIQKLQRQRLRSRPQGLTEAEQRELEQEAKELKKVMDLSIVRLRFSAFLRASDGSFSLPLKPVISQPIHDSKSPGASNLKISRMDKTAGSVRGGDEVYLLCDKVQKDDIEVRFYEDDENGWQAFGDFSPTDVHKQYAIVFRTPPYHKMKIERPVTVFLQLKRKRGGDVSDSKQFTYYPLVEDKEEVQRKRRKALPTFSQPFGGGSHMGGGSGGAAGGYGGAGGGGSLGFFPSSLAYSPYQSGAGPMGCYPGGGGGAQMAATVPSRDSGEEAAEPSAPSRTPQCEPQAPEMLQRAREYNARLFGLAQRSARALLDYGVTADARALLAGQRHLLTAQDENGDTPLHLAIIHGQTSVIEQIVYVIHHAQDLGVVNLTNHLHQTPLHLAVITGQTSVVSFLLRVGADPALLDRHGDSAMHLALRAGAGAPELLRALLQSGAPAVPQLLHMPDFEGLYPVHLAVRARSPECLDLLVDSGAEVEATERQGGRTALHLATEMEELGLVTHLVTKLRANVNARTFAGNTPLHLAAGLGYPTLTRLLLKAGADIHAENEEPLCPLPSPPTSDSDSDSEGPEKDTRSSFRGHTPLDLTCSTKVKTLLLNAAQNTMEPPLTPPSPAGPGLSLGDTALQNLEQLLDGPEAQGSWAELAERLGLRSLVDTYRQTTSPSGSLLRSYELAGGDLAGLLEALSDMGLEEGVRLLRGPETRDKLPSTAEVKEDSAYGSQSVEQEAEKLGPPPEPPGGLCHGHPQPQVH
T1 sequence (Q04206 whole entry, looked up): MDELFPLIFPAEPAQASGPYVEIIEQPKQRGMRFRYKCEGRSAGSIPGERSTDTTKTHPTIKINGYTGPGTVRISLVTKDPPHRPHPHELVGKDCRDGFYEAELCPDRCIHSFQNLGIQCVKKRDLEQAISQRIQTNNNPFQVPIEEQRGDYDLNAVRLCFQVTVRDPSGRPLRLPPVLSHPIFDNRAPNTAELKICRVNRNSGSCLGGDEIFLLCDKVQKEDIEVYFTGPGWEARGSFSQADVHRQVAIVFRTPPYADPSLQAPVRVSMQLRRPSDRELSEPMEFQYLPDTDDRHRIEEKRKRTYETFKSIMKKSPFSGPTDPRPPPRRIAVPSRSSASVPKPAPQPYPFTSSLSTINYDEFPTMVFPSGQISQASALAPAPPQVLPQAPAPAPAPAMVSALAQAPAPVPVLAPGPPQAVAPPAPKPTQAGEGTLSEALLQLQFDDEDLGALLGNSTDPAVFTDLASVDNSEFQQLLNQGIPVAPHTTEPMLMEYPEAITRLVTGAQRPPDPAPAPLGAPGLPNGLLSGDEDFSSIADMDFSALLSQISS

Question: With `O=c1c(O)c(-c2ccc(O)c(O)c2)oc2c(O)c(O)cc(O)c12` as the molecule, how does the Activity [1] read?
Answer: Active

Question: What about the Activity [2] of the same molecule?
Answer: Active

Question: What does the source list for `COc1ccc(-c2cc(=O)c3c(O)cc(O)cc3o2)cc1`?
Answer: inhibition [3]: Active; inhibition [4]: Active; inhibition [5]: Active; inhibition [6]: Active

Question: Which Activity [1] does the source give for `O=c1c(O)c(-c2ccc(O)c(O)c2)oc2cc(O)c(O)c(O)c12` here?
Answer: Active

Question: What about the Activity [2] of the same molecule?
Answer: Active

Question: Which Activity [7] does the source give for `COc1cc(-c2cc(=O)c3c(O)cc(O)cc3o2)ccc1O` [CHRYSOERIOL] here?
Answer: 27%

Question: And the inhibition [3]?
Answer: Active

Question: What about the Activity [8] of the same molecule?
Answer: <10%

Question: And the Activity [9]?
Answer: Dose-dependent effect

Question: And the Activity [10]?
Answer: inactive

Question: What about the fold change (FC) [11] of the same molecule?
Answer: 0.204

Question: And the inhibition [12]?
Answer: Dose-dependent effect

Question: And the inhibition [4]?
Answer: Active

Question: And the inhibition [13]?
Answer: Dose-dependent effect

Question: What about the Activity [14] of the same molecule?
Answer: 34%

Question: What about the fold change (FC) [15] of the same molecule?
Answer: 0.208

Question: And the Activity [16]?
Answer: <10%

Question: What about the fold change (FC) [17] of the same molecule?
Answer: 1.33

Question: And the Activity [18]?
Answer: 39%

Question: What about the inhibition [19] of the same molecule?
Answer: 80%

Question: What about the fold change (FC) [20] of the same molecule?
Answer: 0.361

Question: And the Activity [21]?
Answer: 10%

Question: And the fold change (FC) [5]?
Answer: 2.11

Question: What about the Activity [22] of the same molecule?
Answer: Dose-dependent effect

Question: What about the inhibition [23] of the same molecule?
Answer: Active

Question: What about the fold change (FC) [6] of the same molecule?
Answer: 0.211

Question: What about the MNTC at 48 h [24] of the same molecule?
Answer: 25 µM

Question: What about the fold change (FC) [25] of the same molecule?
Answer: 3.67

Question: What about the fold change (FC) [26] of the same molecule?
Answer: 0.708

Question: And the Activity [27]?
Answer: 10%

Question: For `COc1ccc(-c2cc(=O)c3c(O)cc(O)cc3o2)cc1O`, which inhibition [3] is on record?
Answer: Active

Question: What about the inhibition [4] of the same molecule?
Answer: Active

Question: What about the inhibition [5] of the same molecule?
Answer: Active

Question: What about the inhibition [6] of the same molecule?
Answer: Active

Question: For `O=c1c(O)c(-c2ccc(O)c(O)c2)oc2cc(O)cc(O)c12`, which inhibition [3] is on record?
Answer: Active

Question: What about the Activity [28] of the same molecule?
Answer: Active

Question: And the inhibition [4]?
Answer: Active

Question: And the inhibition [13]?
Answer: inactive

Question: What about the inhibition [5] of the same molecule?
Answer: Active

Question: And the inhibition [6]?
Answer: Active

Question: With `C=C1C(=O)O[C@@H]2C3O[C@]3(C)CC/C=C(\C)CC[C@@H]12` (stereo partly drawn) as the molecule, how does the inhibition [29] read?
Answer: Active

Question: What about the inhibition [30] of the same molecule?
Answer: Active

Question: And the inhibition [31]?
Answer: Active

Question: And the inhibition [32]?
Answer: Active

Question: With `COc1cccc2c1C(=O)c1c(O)c3c(c(O)c1C2=O)C[C@@](O)(C(=O)CO)C[C@@H]3O[C@H]1C[C@H](N)[C@H](O)[C@H](C)O1` as the molecule, how does the Activity [33] read?
Answer: Active
